Patent publication US20230240291A1, “FUNGICIDAL COMPOSITIONS” (SYNGENTA CROP PROTECTION AG, priority 2020, published 2023)
*1 amine or outer side, *2 acyl side, *3 side chain or, on linkers, in order; H or OH if unused. Where a SMILES comes first, the peptide text is derived from it. [ ]: non-standard residue; d: D form. ξ: configuration not given here. ξNMeVal(3-OH) = CNC(C(=O)O)C(C)(C)O; NMeF = CN[CH](Cc1ccccc1)C(=O)O; X1 = CCC(C)C(O[*:1])C(=O)[*:2]; NMeV = CN[CH](C(=O)O)C(C)C

Experiments:
[1] = system: Botrytis cinerea; assay: microbe, parasite or virus in culture; type: cell-based; conditions: 72 hours
Protocol: Mycelia fragments or conidia suspensions of a fungus, prepared either freshly from liquid cultures of the fungus or from cryogenic storage, are directly mixed into nutrient broth. DMSO solutions of the test compound (max. 10 mg/mL) is diluted with 0.025% Tween20 by factor 50 and 10 µL of this solution is pipetted into a microtiter plate (96-well format). […] The test plates are incubated in the dark at 24° C. and 96% relative humidity (rh). The inhibition of fungal growth is determined photometrically and visually after 3 - 7 days, depending on the pathosystem, and percent antifungal activity relative to the untreated check is calculated.
Conidia of the fungus from cryogenic storage were directly mixed into nutrient broth (PDB potato dextrose broth). After placing a DMSO solution of the test compositions into a microtiter plate (96-well format), the nutrient broth containing the fungal spores was added.

[2] = system: Alternaria solani; type: cell-based; conditions: 48 hours
Protocol: Mycelia fragments or conidia suspensions of a fungus, prepared either freshly from liquid cultures of the fungus or from cryogenic storage, are directly mixed into nutrient broth. DMSO solutions of the test compound (max. 10 mg/mL) is diluted with 0.025% Tween20 by factor 50 and 10 µL of this solution is pipetted into a microtiter plate (96-well format). The nutrient broth containing the fungal spores/mycelia fragments is then added to give an end concentration of the tested compound. The test plates are incubated in the dark at 24° C. and 96% relative humidity (rh). The inhibition of fungal growth is determined photometrically and visually after 3 - 7 days, depending on the pathosystem, and percent antifungal activity relative to the untreated check is calculated.
Conidia of the fungus from cryogenic storage were directly mixed into nutrient broth (PDB potato dextrose broth). After placing a DMSO solution of the test compositions into a microtiter plate (96-well format) the nutrient broth containing the fungal spores was added.

**Q.** What does the source list for `CC(C)NC(=O)N1CC(=O)N(c2cc(Cl)cc(Cl)c2)C1=O` [Iprodione, iprodione]?
**A.** inhibition at 0.125 ppm ([1]; Botrytis cinerea, Iprodione 0.125 ppm alone, read-out: (B) inhibition): 4%; inhibition at 0.25 ppm ([1]; Botrytis cinerea, Iprodione 0.250 ppm alone, read-out: (B) inhibition): 0%

**Q.** For `C=CCOC(Cn1ccnc1)c1ccc(Cl)cc1Cl` (centres unmarked) [Imazalil], which “(B) inhibition” value ([2]; component (B) 0.5 ppm alone) is on record?
**A.** 35%

**Q.** How did the inhibition at […] ([1]; Botrytis cinerea, Fludioxonil 0.0063 ppm alone, read-out: (B) inhibition) turn out when `N#Cc1c[nH]cc1-c1cccc2c1OC(F)(F)O2` [Fludioxonil, fludioxonil] was run?
**A.** 0%

**Q.** Which “(A) inhibition” value ([2]; Aureobasidin A 0.005 ppm alone, growth inhibition, photometric) does the source give for `CCC(C)C1NC(=O)C2CCCN2C(=O)C(Cc2ccccc2)N(C)C(=O)C(Cc2ccccc2)NC(=O)C(C(C)C)N(C)C(=O)C(C(C)CC)OC(=O)C(C(C)(C)O)N(C)C(=O)C(CC(C)C)NC(=O)C(C(C)C)N(C)C1=O` (centres unmarked) [Aureobasidin A] (cyclo([ξNMeVal(3-OH)][X1][NMeV]F[NMeF]PI[NMeV]L); configuration not given here) here?
**A.** 11%

**Q.** What about the “(A) inhibition” value ([1]; Aureobasidin A 0.01 ppm alone, fludioxonil table) of the same compound?
**A.** 22%

**Q.** And the “(A) inhibition” value ([1]; Aureobasidin A 0.01 ppm alone, growth inhibition, photometric, iprodione table)?
**A.** 18%

**Q.** And the “(A) inhibition” value ([1]; Aureobasidin A 0.02 ppm alone, iprodione table)?
**A.** 60%
